Reference: publication PMC3072269 (Journal of medicinal chemistry, 2010)
“Also recorded” adds a separate entry of the source. Read-outs that look alike come from different tables or passages of the source.

Key:
PTEN mRNA = assay: Quantitative RT-PCR analysis of PTEN mRNA splicing in mouse tissues; assay type: in vivo, Balb/c mice; conditions: for PTEN mRNA in liver, quantitative RT-PCR: i.p. 3x/wk, 7 at 25 mg/kg, 1 at 40 mg/kg, PNAs 10 or 40 mg/kg
PTEN protein = assay: Western blot analysis of PTEN protein in mouse tissues; assay type: in vivo, Balb/c mice; conditions: 7 at 25 mg/kg, i.p. 3x/wk, 2 wks
PTEN = conditions: mice, determined in a previous study, cited from earlier work
[1] = system: CD40 cell surface protein expression; conditions: read-out: IC50, CD40 cell surface protein expression; flow cytometry, FITC labeled antiCD40 antibody; cited from earlier work
PTEN RNA = assay: Quantitative RT-PCR of PTEN RNA splicing in BCL1 cells; assay type: cell-based, murine; conditions: data not shown
[2] = amphipathic peptide study, dosing as in Table 6

Substance: 1: uniform 2′-O-MOE phosphorothioate 20-mer CTCAGCACATCTACAAGAAA, PTEN intron 3:exon 4 (all 2'-MOE, all phosphorothioate, methylation of C not given here) [Compound 1, reference compound]
- PTEN mRNA in liver, quantitative RT-PCR (PTEN mRNA; 2 wks): modest downregulation of full length transcript with upregulation of the alternatively spliced product

Substance: 7: antiPTEN phosphorothioate oligonucleotide with 2′-O-MOE wings and a 2′-deoxyribonucleotide gap, CTGCTAGCCTCTGGATTTGA, exon 9 [Compound 7]
- PTEN mRNA in liver, quantitative RT-PCR (PTEN mRNA; 2 wks): downregulation of total PTEN message (both isoforms)
- PTEN protein in adipose tissue, western blot (PTEN protein; 9 at high dose (40 mg/kg)): significant and comparable downregulation of PTEN protein
- PTEN protein expression in liver, western blot (PTEN protein; PNAs 10 or 40 mg/kg): significant inhibition of PTEN protein expression
- EC50 (PTEN; read-out: Adipose EC50): 0.7 to 1.4 µM
- EC50 (PTEN; read-out: Liver EC50): 14 µM

Substance: (Lys)2-TKCTCAGCACATCTACA-Lys [Compound 10]
- PTEN mRNA splicing in white adipose tissue, quantitative RT-PCR (PTEN mRNA; 10 or 40 mg/kg i.p., 3x/wk, 2 wks): marginal with the alternatively spliced isoform being upregulated but the full length transcript being unaltered; also recorded: inactive at both doses

Substance: CACAGATGACATTAG-Lys [Compound 8]
- IC50 [1]: 900 nM

Substance: CTCAGCACATCTACA-Lys [Compound 3]
- alteration of splicing of PTEN RNA (PTEN RNA): full length transcript was reduced and the alternatively spliced product was enhanced

Substance: D-(KKLLKAALKLAKKG)-TKCTCAGCACATCTACA-Lys [Compound 14]
- histopathological examination of the kidneys, low dose group (Tolerability in mice; 8.25 mg/kg i.p., 3x/wk, 2 wks): nephrotoxicity with proximal tubule necrosis and regeneration
- liver morphology, high dose group (Tolerability in mice; 33 mg/kg i.p.): appeared normal
- spleen size, high dose group (Tolerability in mice; 33 mg/kg i.p.): drastically reduced spleen sizes
- histopathological examination of the kidneys, high dose group (Tolerability in mice; 33 mg/kg i.p., single administration): profound proximal tubule necrosis and proteinacous accumulation in Henle’s loop and collecting tubules
- body weight, high dose group (Tolerability in mice; 33 mg/kg i.p., arm terminated prematurely): rapid weight loss after administration of the first dose, indicative of acute toxicity
- PTEN splicing activity in adipose tissue, quantitative RT-PCR (PTEN mRNA; [2]): showed activity at the low dose
- PTEN splicing activity in kidney, quantitative RT-PCR (PTEN mRNA; [2]): comparable to the octa(L-lysine) conjugate 9, even when administered at an approximately 4.5-fold lower dose
